Experiments:
[1] = molecular target: L-lactate dehydrogenase A chain (Homo sapiens, UniProt P00338); assay: Inhibition of LDHA (unknown origin)
[2] = molecular target: L-lactate dehydrogenase B chain (Homo sapiens, UniProt P07195); assay: Inhibition of LDHB (unknown origin)
[3] = Inhibition of lactate production in human MIA PaCa-2 cells; format: functional, cell-based
[4] = Lipophilicity, logD of compound; format: physicochemical; conditions: octanol/water
[5] = Plasma protein binding in mouse; format: ADME, cell-free; conditions: read-out: PPB
[6] = Apparent permeability across apical to basolateral side in MDCK cells at 100 uM by HPLC analysis; format: ADME, cell-based, Canis lupus familiaris; conditions: dog
[7] = Half-life in mouse at 1 mg/kg, iv; format: ADME, organism-based; conditions: in vivo
[8] = Cmax in mouse at 50 mg/kg, po; format: ADME, organism-based; parameters: dose 50 mg/kg, route po; conditions: in vivo
[9] = AUC in mouse at 5 mg/kg, po; format: ADME, organism-based; parameters: dose 5 mg/kg, route po; conditions: in vivo
[10] = Cmax in mouse at 1 mg/kg, iv; format: ADME, organism-based; parameters: dose 1 mg/kg, route iv; conditions: in vivo
[11] = Cmax in mouse at 100 mg/kg, po; format: ADME, organism-based; parameters: dose 100 mg/kg, route po; conditions: in vivo
[12] = AUC in mouse at 200 mg/kg, po; format: ADME, organism-based; parameters: dose 200 mg/kg, route po; conditions: in vivo
[13] = AUC in mouse at 50 mg/kg, po; format: ADME, organism-based; parameters: dose 50 mg/kg, route po; conditions: in vivo
[14] = Cmax in mouse at 5 mg/kg, po; format: ADME, organism-based; parameters: dose 5 mg/kg, route po; conditions: in vivo
[15] = AUC in mouse at 1 mg/kg, iv; format: ADME, organism-based; parameters: dose 1 mg/kg, route iv; conditions: in vivo
[16] = Oral bioavailability in mouse at 5 mg/kg; format: ADME, organism-based; conditions: in vivo
[17] = Cmax in mouse at 200 mg/kg, po; format: ADME, organism-based; parameters: dose 200 mg/kg, route po; conditions: in vivo
[18] = Clearance in mouse at 1 mg/kg, iv; format: ADME, organism-based; conditions: in vivo
[19] = Volume of distribution at steady state in mouse at 1 mg/kg, iv; format: ADME, organism-based; conditions: in vivo, read-out: Vdss
[20] = Toxicity in mouse xenografted with human MIA PaCa-2 cells assessed as effect on body weight at 200 to 400 mg/kg administered twice a day for 28 days; format: organism-based; conditions: in vivo, 672 h, dose 200-400 mg/kg, time 28 day
[21] = AUC in mouse at 100 mg/kg, po; format: ADME, organism-based; parameters: dose 100 mg/kg, route po; conditions: in vivo

Chain of L-lactate dehydrogenase B chain (P07195 whole entry): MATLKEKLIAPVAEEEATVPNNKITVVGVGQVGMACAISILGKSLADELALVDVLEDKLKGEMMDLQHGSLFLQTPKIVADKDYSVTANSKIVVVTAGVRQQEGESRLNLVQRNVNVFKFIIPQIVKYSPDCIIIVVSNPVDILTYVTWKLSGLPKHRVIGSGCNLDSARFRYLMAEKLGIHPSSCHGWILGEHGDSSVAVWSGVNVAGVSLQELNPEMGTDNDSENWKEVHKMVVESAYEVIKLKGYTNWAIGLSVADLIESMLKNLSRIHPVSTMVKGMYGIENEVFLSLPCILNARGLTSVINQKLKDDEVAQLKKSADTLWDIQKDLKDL

O=C1NC(c2ccc(N3CCOCC3)cc2)(c2cccc(Oc3ccc(F)cc3)n2)CC(O)=C1Sc1ccccc1Cl (stereo in doubt; 51)
IC50 [1]: 37 nM

O=C1OC(c2ccccc2)(c2cccs2)CC(O)=C1Sc1ccccc1Cl (stereo in doubt; 8)
IC50 [1]: 220 nM
IC50 [2]: 1500 nM

O=C1OC(c2ccsc2)(c2ccccc2O)CC(O)=C1Sc1ccccc1Cl (stereo in doubt; 16)
IC50 [1]: 2.2 nM

CC(=O)Nc1cccc(C2(c3ccsc3)CC(O)=C(Sc3ccccc3Cl)C(=O)O2)c1 (racemic)
IC50 [1]: 43 nM

O=C1NC(c2cccc(Nc3ccc(F)c(F)c3)n2)(c2cccc(NC3CCOCC3)n2)CC(O)=C1Sc1ccccc1Cl (stereo in doubt; 37)
IC50 [1]: 55 nM

O=C1NC(c2cccc(Nc3ccc(F)c(F)c3)n2)(c2cccc(Oc3cccc4ncccc34)n2)CC(O)=C1Sc1ccccc1Cl (stereo in doubt; 47)
IC50 [1]: 68 nM
IC50 [2]: 650 nM

O=C1OC(c2ccccc2)(c2cscn2)CC(O)=C1Sc1ccccc1Cl (stereo in doubt; 10)
IC50 [1]: 1100 nM
IC50 [2]: 2800 nM

O=C1OC(c2ccccc2)(c2ccccc2O)CC(O)=C1Sc1ccccc1Cl (stereo in doubt; 14)
IC50 [1]: 26 nM
IC50 [2]: 75 nM

O=C1OC(c2ccccn2)(c2ccccn2)CC(O)=C1Sc1ccccc1Cl
IC50 [1]: 1200 nM
IC50 [2]: 2900 nM

Nc1cccc(C2(c3ccccc3)CC(O)=C(Sc3ccccc3Cl)C(=O)O2)c1 (stereo in doubt; 22)
IC50 [1]: 130 nM
IC50 [2]: 250 nM

O=C1OC(c2ccsc2)(c2ccccn2)CC(O)=C1Sc1ccccc1Cl (stereo in doubt; 12)
IC50 [1]: 970 nM
IC50 [2]: 3200 nM

O=C1NC(c2ccsc2)(c2cccc(Nc3ccc(F)c(F)c3)n2)CC(O)=C1Sc1ccccc1Cl (stereo in doubt; 38)
IC50 [3]: 9100 nM
logD [4]: 1.1
IC50 [1]: 10 nM

O=C1OC(c2ccccc2)(c2ccccn2)CC(O)=C1Sc1ccccc1Cl (stereo in doubt; 2)
IC50 [1]: 920 nM

O=C1N[C@@](c2cccc(Nc3ccc(F)cc3)n2)(c2cccc(Nc3ccc(F)c(F)c3)n2)CC(O)=C1Sc1ccccc1Cl
IC50 [1]: 3.7 nM

O=C1NC(c2cccc(NCCC3CC3)n2)(c2cccc(Nc3ccc(F)c(F)c3)n2)CC(O)=C1Sc1ccccc1Cl (stereo in doubt; 41)
IC50 [1]: 190 nM

O=C1NC(c2ccc(N3CCOCC3)cc2)(c2cccc(Oc3ccc(F)cc3)n2)CC(O)=C1Sc1ccccc1Cl (stereo in doubt; 50)
IC50 [3]: 1700 nM
logD [4]: 1.9
fraction unbound [5]: 0.001
IC50 [1]: 1.8 nM
Papp A→B at 100 µM [6]: 2.2 ×10⁻⁶ cm/s

O=C1OC(c2cccs2)(c2cccs2)CC(O)=C1Sc1ccccc1Cl
IC50 [1]: 90 nM

O=C1NC(c2cccc(NCc3ccc(F)cc3)n2)(c2cccc(Nc3ccc(F)c(F)c3)n2)CC(O)=C1Sc1ccccc1Cl (stereo in doubt; 43)
IC50 [1]: 160 nM

O=C1OC(c2ccccc2)(c2ccsc2)CC(O)=C1Sc1ccccc1Cl (stereo in doubt; 5)
IC50 [1]: 90 nM

O=C1OC(c2ccsc2)(c2cccc(Nc3ccc(F)cc3)n2)CC(O)=C1Sc1ccccc1Cl (stereo in doubt; 31)
IC50 [1]: 6.9 nM

O=C1O[C@@](c2ccsc2)(c2cccc(Nc3ccc(F)cc3)c2)CC(O)=C1Sc1ccccc1Cl
IC50 [1]: 4 nM

O=C1OC(c2ccsc2)(c2cccc(Nc3ccc(F)cn3)c2)CC(O)=C1Sc1ccccc1Cl (stereo in doubt; 29)
IC50 [1]: 63 nM

O=C1NC(c2cccc(Nc3ccc(F)c(F)c3)n2)(c2cccc(NC3CCOCC3)n2)CC(O)=C1Sc1ccccc1Cl (stereo in doubt; 36)
IC50 [3]: 7200 nM
logD [4]: 2.4
IC50 [1]: 2.7 nM

O=C1OC(c2ccsc2)(c2ccccc2F)CC(O)=C1Sc1ccccc1Cl (stereo in doubt; 18)
IC50 [1]: 220 nM

Nc1cccc(C2(c3ccsc3)CC(O)=C(Sc3ccccc3Cl)C(=O)O2)c1 (stereo in doubt; 21)
IC50 [1]: 190 nM

O=C1N[C@](c2cccc(Nc3ccc(F)cc3)n2)(c2cccc(Nc3ccc(F)c(F)c3)n2)CC(O)=C1Sc1ccccc1Cl
half-life [7]: 2.81 h
Cmax [8]: 23.3 µM
AUC [9]: 19.4 µM·h
Cmax [10]: 7.36 µM
Cmax [11]: 66.9 µM
AUC [12]: 411 µM·h
AUC [13]: 71.2 µM·h
IC50 [3]: 2000 nM
logD [4]: 2.2
fraction unbound [5]: 0.001
Cmax [14]: 5.95 µM
AUC [15]: 6.5 µM·h
IC50 [1]: 1.6 nM
bioavailability [16]: 59.5%
Cmax [17]: 117 µM
Papp A→B at 100 µM [6]: 4.6 ×10⁻⁶ cm/s
clearance [18]: 4.89 mL/min/kg
Vd [19]: 0.671 L/kg
Activity [20]: Non-Toxic
AUC [21]: 235 µM·h

O=C1OC(c2ccsc2)(c2cccc(Nc3ccc(F)cn3)c2)CC(O)=C1Sc1ccccc1Cl (stereo in doubt; 28)
IC50 [1]: 2.9 nM

O=C1NC(c2cccc(Nc3ccc(F)c(F)c3)n2)(c2cccc(Oc3ccccc3)n2)CC(O)=C1Sc1ccccc1Cl (stereo in doubt; 45)
IC50 [1]: 3.2 nM

O=C1OC(c2ccsc2)(c2ccccc2O)CC(O)=C1Sc1ccccc1Cl (stereo in doubt; 17)
IC50 [1]: 22 nM

O=C1OC(c2ccccc2)(c2ccsc2)CC(O)=C1Sc1ccccc1Cl (stereo in doubt; 6)
IC50 [1]: 430 nM

O=C1NC(c2cccc(NCc3ccc(F)cc3)n2)(c2cccc(Nc3ccc(F)c(F)c3)n2)CC(O)=C1Sc1ccccc1Cl (stereo in doubt; 42)
logD [4]: 2.5
IC50 [1]: 8.6 nM

O=C1NC(c2cccc(Nc3ccc(F)c(F)c3)n2)(c2cccc(Oc3ccccc3)n2)CC(O)=C1Sc1ccccc1Cl (stereo in doubt; 44)
IC50 [3]: 5300 nM
logD [4]: 2.6
IC50 [1]: 2.5 nM

O=C1OC(c2ccsc2)(c2cccc(NCC(F)(F)F)c2)CC(O)=C1Sc1ccccc1Cl (racemic)
IC50 [1]: 66 nM

O=C1NC(c2ccsc2)(c2cccc(Nc3ccc(F)c(F)c3)n2)CC(O)=C1Sc1ccccc1Cl (stereo in doubt; 39)
IC50 [1]: 75 nM

O=C1OC(c2ccccc2)(c2cccs2)CC(O)=C1Sc1ccccc1Cl (stereo in doubt; 7)
IC50 [1]: 120 nM
IC50 [2]: 1300 nM

O=C1OC(c2ccccc2)(c2ccccc2O)CC(O)=C1Sc1ccccc1Cl (stereo in doubt; 15)
IC50 [1]: 430 nM
IC50 [2]: 950 nM

O=C1NC(c2cccc(NCCC3CC3)n2)(c2cccc(Nc3ccc(F)c(F)c3)n2)CC(O)=C1Sc1ccccc1Cl (stereo in doubt; 40)
IC50 [1]: 13 nM

O=C1O[C@](c2ccsc2)(c2cccc(Nc3ccc(F)cc3)c2)CC(O)=C1Sc1ccccc1Cl
IC50 [1]: 36 nM

O=C1NC(c2ccc(N3CCOCC3)cc2)(c2cccc(Nc3ccc(F)cc3)n2)CC(O)=C1Sc1ccccc1Cl (stereo in doubt; 49)
IC50 [1]: 11 nM

O=C1OC(c2ccccc2)(c2ccccn2)CC(O)=C1Sc1ccccc1Cl (stereo in doubt; 3)
IC50 [1]: 2400 nM

O=C1OC(c2ccccc2)(c2cscn2)CC(O)=C1Sc1ccccc1Cl (stereo in doubt; 9)
IC50 [1]: 180 nM
IC50 [2]: 550 nM

O=C1NC(c2ccc(N3CCOCC3)cc2)(c2cccc(Nc3ccc(F)cc3)n2)CC(O)=C1Sc1ccccc1Cl (stereo in doubt; 48)
logD [4]: 2
IC50 [1]: 2.5 nM

O=C1OC(c2ccsc2)(c2ccccn2)CC(O)=C1Sc1ccccc1Cl (stereo in doubt; 11)
IC50 [1]: 130 nM
IC50 [2]: 540 nM

O=C1NC(c2cccc(Nc3ccc(F)c(F)c3)n2)(c2cccc(Oc3cccc4ncccc34)n2)CC(O)=C1Sc1ccccc1Cl (stereo in doubt; 46)
IC50 [3]: 3600 nM
logD [4]: 2.2
IC50 [1]: 3.8 nM
IC50 [2]: 25 nM

O=C1NC(c2cccc(Nc3ccc(F)c(F)c3)n2)(c2cccc(NC3CCCCC3)n2)CC(O)=C1Sc1ccccc1Cl (stereo in doubt; 35)
IC50 [1]: 4.4 nM

O=C1OC(c2ccsc2)(c2ccccc2F)CC(O)=C1Sc1ccccc1Cl (stereo in doubt; 19)
IC50 [1]: 450 nM

O=C1NC(c2cccc(Nc3ccc(F)c(F)c3)n2)(c2cccc(NC3CCCCC3)n2)CC(O)=C1Sc1ccccc1Cl (stereo in doubt; 34)
IC50 [3]: 2200 nM
logD [4]: 2.6
IC50 [1]: 0.9 nM

O=C1OC(c2ccccc2)(c2ccccc2)CC(O)=C1Sc1ccccc1Cl
IC50 [1]: 1000 nM
IC50 [2]: 3100 nM

Nc1cccc(C2(c3ccsc3)CC(O)=C(Sc3ccccc3Cl)C(=O)O2)c1 (stereo in doubt; 20)
IC50 [1]: 13 nM

O=C1OC(c2ccsc2)(c2cccc(Nc3ccc(F)cc3)n2)CC(O)=C1Sc1ccccc1Cl (stereo in doubt; 30)
IC50 [1]: 2.9 nM

Nc1cccc(C2(c3ccccc3)CC(O)=C(Sc3ccccc3Cl)C(=O)O2)c1 (stereo in doubt; 23)
IC50 [1]: 450 nM
IC50 [2]: 3800 nM
